# Species: Rattus norvegicus
# Assay: DrugMatrix - Regimen: Daily Repeat
# Type: toxicity, organism-based, Sprague-Dawley
# Design: regimen Daily Repeat, gender Male, age 6-8 weeks
# Conditions: in vivo, po, 35 mg/kg, route oral GAVAGE, dose level Low, vehicle .5 % CMC; for ABSOLUTE BASOPHIL / ABSOLUTE EOSINOPHIL / ABSOLUTE LYMPHOCYTE / ABSOLUTE MONOCYTE / ABSOLUTE SEGMENTED NEUTROPHIL / BASOPHIL / EOSINOPHIL / ERYTHROCYTE COUNT / HEMATOCRIT / HEMOGLOBIN / LEUKOCYTE COUNT / LYMPHOCYTE / MEAN CORPUSCULAR HEMOGLOBIN / MEAN CORPUSCULAR HEMOGLOBIN CONCENTRATION / MEAN CORPUSCULAR VOLUME / MONOCYTE / NEUTROPHIL / NUCLEATED RED BLOOD CELLS / PLATELET COUNT: tissue Blood; for ALANINE AMINOTRANSFERASE / ALBUMIN / ALKALINE PHOSPHATASE / ASPARTATE AMINOTRANSFERASE / BLOOD UREA NITROGEN / CARBON DIOXIDE / CHLORIDE / CHOLESTEROL / CREATINE PHOSPHOKINASE / CREATININE / GLUCOSE / LACTATE DEHYDROGENASE / LIPASE / PHOSPHORUS / POTASSIUM / SODIUM / TOTAL BILIRUBIN / TOTAL PROTEIN / URIC ACID: tissue Plasma
structure (smiles),measurement,setting,value
COC(=O)C1=C(C)NC(C)=C(C(=O)OC)C1c1ccccc1[N+](=O)[O-] [NIFEDIPINE],ABSOLUTE BASOPHIL,"72 h, time 3 day",0 CELLS/uL
same,ABSOLUTE EOSINOPHIL,"72 h, time 3 day",0 CELLS/uL
same,ABSOLUTE LYMPHOCYTE,"72 h, time 3 day",17514.67 CELLS/uL
same,ABSOLUTE MONOCYTE,"72 h, time 3 day",172 CELLS/uL
same,ABSOLUTE SEGMENTED NEUTROPHIL,"72 h, time 3 day",1213.33 CELLS/uL
same,BASOPHIL,"72 h, time 3 day",0%
same,EOSINOPHIL,"72 h, time 3 day",0%
same,ERYTHROCYTE COUNT,"72 h, time 3 day",5.2 x10E6/uL
same,HEMATOCRIT,"72 h, time 3 day",33.43%
same,HEMOGLOBIN,"72 h, time 3 day",12.8 G/DL
same,LEUKOCYTE COUNT,"72 h, time 3 day",18.9 x10E3/uL
same,LYMPHOCYTE,"72 h, time 3 day",92.67%
same,MEAN CORPUSCULAR HEMOGLOBIN,"72 h, time 3 day",24.63 pg
same,MEAN CORPUSCULAR HEMOGLOBIN CONCENTRATION,"72 h, time 3 day",38.27 G/DL
same,MEAN CORPUSCULAR VOLUME,"72 h, time 3 day",64.3 fL
same,MONOCYTE,"72 h, time 3 day",1%
same,NEUTROPHIL,"72 h, time 3 day",6.33%
same,NUCLEATED RED BLOOD CELLS,"72 h, time 3 day",0.33 /100WBC
same,PLATELET COUNT,"72 h, time 3 day",1358.33 x10E3/uL
same,ALANINE AMINOTRANSFERASE,"72 h, time 3 day",46 u/L
same,ALBUMIN,"72 h, time 3 day",4.37 G/DL
same,ALKALINE PHOSPHATASE,"72 h, time 3 day",361.33 u/L
same,ASPARTATE AMINOTRANSFERASE,"72 h, time 3 day",91.33 u/L
same,BLOOD UREA NITROGEN,"72 h, time 3 day",21.67 mg/dL
same,CARBON DIOXIDE,"72 h, time 3 day",24 mmol/L
same,CHLORIDE,"72 h, time 3 day",106.33 MEQ/L
same,CHOLESTEROL,"72 h, time 3 day",90.67 mg/dL
same,CREATINE PHOSPHOKINASE,"72 h, time 3 day",276 u/L
same,CREATININE,"72 h, time 3 day",0.31 mg/dL
same,GLUCOSE,"72 h, time 3 day",142.67 mg/dL
same,LACTATE DEHYDROGENASE,"72 h, time 3 day",570 u/L
same,LIPASE,"72 h, time 3 day",11 u/L
same,PHOSPHORUS,"72 h, time 3 day",11.77 mg/dL
same,POTASSIUM,"72 h, time 3 day",6.88 MEQ/L
same,SODIUM,"72 h, time 3 day",148.6 MEQ/L
same,TOTAL BILIRUBIN,"72 h, time 3 day",0.2 mg/dL
same,TOTAL PROTEIN,"72 h, time 3 day",6.2 G/DL
same,URIC ACID,"72 h, time 3 day",1.67 mg/dL
same,ABSOLUTE BASOPHIL,"120 h, time 5 day",0 CELLS/uL
same,ABSOLUTE EOSINOPHIL,"120 h, time 5 day",0 CELLS/uL
same,ABSOLUTE LYMPHOCYTE,"120 h, time 5 day",11212.33 CELLS/uL
same,ABSOLUTE MONOCYTE,"120 h, time 5 day",196 CELLS/uL
same,ABSOLUTE SEGMENTED NEUTROPHIL,"120 h, time 5 day",1358.33 CELLS/uL
same,BASOPHIL,"120 h, time 5 day",0%
same,EOSINOPHIL,"120 h, time 5 day",0%
same,ERYTHROCYTE COUNT,"120 h, time 5 day",6.29 x10E6/uL
same,HEMATOCRIT,"120 h, time 5 day",40.53%
same,HEMOGLOBIN,"120 h, time 5 day",14.9 G/DL
same,LEUKOCYTE COUNT,"120 h, time 5 day",12.77 x10E3/uL
same,LYMPHOCYTE,"120 h, time 5 day",88.33%
same,MEAN CORPUSCULAR HEMOGLOBIN,"120 h, time 5 day",23.67 pg
same,MEAN CORPUSCULAR HEMOGLOBIN CONCENTRATION,"120 h, time 5 day",36.77 G/DL
same,MEAN CORPUSCULAR VOLUME,"120 h, time 5 day",64.4 fL
same,MONOCYTE,"120 h, time 5 day",1.33%
same,NEUTROPHIL,"120 h, time 5 day",10.33%
same,NUCLEATED RED BLOOD CELLS,"120 h, time 5 day",0 /100WBC
same,PLATELET COUNT,"120 h, time 5 day",1155 x10E3/uL
same,ALANINE AMINOTRANSFERASE,"120 h, time 5 day",57 u/L
same,ALBUMIN,"120 h, time 5 day",4.5 G/DL
same,ALKALINE PHOSPHATASE,"120 h, time 5 day",414.33 u/L
same,ASPARTATE AMINOTRANSFERASE,"120 h, time 5 day",79.67 u/L
same,BLOOD UREA NITROGEN,"120 h, time 5 day",19 mg/dL
same,CARBON DIOXIDE,"120 h, time 5 day",23 mmol/L
same,CHLORIDE,"120 h, time 5 day",104 MEQ/L
same,CHOLESTEROL,"120 h, time 5 day",81.67 mg/dL
same,CREATINE PHOSPHOKINASE,"120 h, time 5 day",210 u/L
same,CREATININE,"120 h, time 5 day",0.21 mg/dL
same,GLUCOSE,"120 h, time 5 day",163.67 mg/dL
same,LACTATE DEHYDROGENASE,"120 h, time 5 day",114.33 u/L
same,LIPASE,"120 h, time 5 day",10 u/L
same,PHOSPHORUS,"120 h, time 5 day",13.37 mg/dL
same,POTASSIUM,"120 h, time 5 day",7.57 MEQ/L
same,SODIUM,"120 h, time 5 day",147 MEQ/L
same,TOTAL BILIRUBIN,"120 h, time 5 day",0.27 mg/dL
same,TOTAL PROTEIN,"120 h, time 5 day",6.5 G/DL
same,URIC ACID,"120 h, time 5 day",2 mg/dL
